The values below come from the NIST ThermoML archive (doi:10.1016/j.jct.2014.04.014).

Numbers after ± are expanded uncertainties.

A short description of this data set: wn = mass fraction of the nth substance listed. Particulars: 273.15 K, 102.5 kPa, Liquid; for viscosity: Capillary tube (Ostwald / Ubbelohde) method; for mass density: Pycnometric method.

Broadly, the viscosity is the resistance of a fluid to flow. Broadly, the mass density is mass per unit of volume. For `[Cl-].[Na+]` [sodium chloride] + O, where the note is “w1 = 0.2625”, the viscosity is reported as 2.16 ± 0.05 mPa·s and the mass density is 1201 ± 1 kg/m3.
`[Cl-].[Cl-].[Zn+2]` [zinc chloride] + O: under “w1 = 0.666”, the viscosity is recorded as 135.4 ± 4.5 mPa·s and the mass density stood at 1943 ± 3 kg/m3.
Regarding `O=[PH2][O-].[Na+]` [sodium phosphinate] + O, under “w1 = 0.478”, the viscosity is on record as 73.88 ± 1.9 mPa·s and the mass density was 1384 ± 1 kg/m3.
As for `O=[PH2][O-].O=[PH2][O-].[Zn+2]` [zinc(II) phosphinate] + O, for the setting “w1 = 0.1379”, the viscosity came out at 2.95 ± 0.06 mPa·s and the mass density was determined as 1069 ± 1 kg/m3.
